Data as given in PubChem BioAssay (NCI).
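Results reflect a 48-hour exposure of cells in 96-well plates to compound at five concentrations. GI50 marks 50% less growth. Definition used: TGI = concentration required for complete inhibition of growth.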

Legend:
Test in all cases: inhibition of tumour cell growth, NCI panel, 48 h
TK-10 renal = system: TK-10 renal
HOP-92 NSCLC = system: HOP-92 NSCLC
RXF 393 renal = system: RXF 393 renal
NCI-H522 lung = system: NCI-H522 lung
U251 CNS = system: U251 CNS
KM12 colon = system: KM12 colon
CAKI-1 renal = system: CAKI-1 renal
OVCAR-4 ovarian = system: OVCAR-4 ovarian
NCI/ADR-RES ovarian = system: NCI/ADR-RES ovarian
SR leukemia = system: SR leukemia
SF-539 CNS = system: SF-539 CNS
NCI-H23 lung = system: NCI-H23 lung
BT-549 breast = system: BT-549 breast
UACC-62 melanoma = system: UACC-62 melanoma
EKVX NSCLC = system: EKVX NSCLC
MOLT-4 leukemia = system: MOLT-4 leukemia
COLO 205 colon = system: COLO 205 colon
PC-3 prostate = system: PC-3 prostate
UO-31 renal = system: UO-31 renal
SNB-19 CNS = system: SNB-19 CNS
OVCAR-8 ovarian = system: OVCAR-8 ovarian
786-0 renal = system: 786-0 renal
UACC-257 melanoma = system: UACC-257 melanoma
A549 NSCLC = system: A549 NSCLC
NCI-H226 lung = system: NCI-H226 lung
A498 renal = system: A498 renal
RPMI-8226 leukemia = system: RPMI-8226 leukemia
HL-60(TB) leukemia = system: HL-60(TB) leukemia
HCT-116 colon = system: HCT-116 colon
HCT-15 colon = system: HCT-15 colon
OVCAR-5 ovarian = system: OVCAR-5 ovarian
SNB-75 CNS = system: SNB-75 CNS
MCF7 breast = system: MCF7 breast
SN12C renal = system: SN12C renal
T-47D breast = system: T-47D breast
SK-MEL-28 melanoma = system: SK-MEL-28 melanoma
MDA-MB-231 breast = system: MDA-MB-231 breast
HOP-62 NSCLC = system: HOP-62 NSCLC
HCC-2998 colon = system: HCC-2998 colon
SF-295 CNS = system: SF-295 CNS
MDA-MB-435 = system: MDA-MB-435
HT29 colon = system: HT29 colon
M14 melanoma = system: M14 melanoma
HS 578T breast = system: HS 578T breast
SW-620 colon = system: SW-620 colon
SF-268 CNS = system: SF-268 CNS
SK-MEL-5 melanoma = system: SK-MEL-5 melanoma
NCI-H460 lung = system: NCI-H460 lung
K-562 leukemia = system: K-562 leukemia
DU-145 prostate = system: DU-145 prostate
MALME-3M melanoma = system: MALME-3M melanoma
ACHN renal = system: ACHN renal
SK-OV-3 ovarian = system: SK-OV-3 ovarian
LOX IMVI melanoma = system: LOX IMVI melanoma
CCRF-CEM leukemia = system: CCRF-CEM leukemia
OVCAR-3 ovarian = system: OVCAR-3 ovarian

CCN(CC)CCOc1ccc2c(-c3ccccc3)c(-c3ccc(OC)cc3)c(=O)oc2c1
GI50 (TK-10 renal): 11.6 µM
TGI (TK-10 renal): 25.2 µM
GI50 (HOP-92 NSCLC): 2470 nM
TGI (HOP-92 NSCLC): 10.7 µM
GI50 (RXF 393 renal): 3.23 µM
TGI (RXF 393 renal): 13.7 µM
GI50 (NCI-H522 lung): 4.92 µM
TGI (NCI-H522 lung): 18.5 µM
GI50 (U251 CNS): 4.51 µM
TGI (U251 CNS): 20.9 µM
GI50 (KM12 colon): 3.83 µM
TGI (KM12 colon): 14.1 µM
GI50 (CAKI-1 renal): 3.07 µM
TGI (CAKI-1 renal): 10.3 µM
GI50 (OVCAR-4 ovarian): 4.8 µM
TGI (OVCAR-4 ovarian): 18.1 µM
GI50 (NCI/ADR-RES ovarian): 4.51 µM
TGI (NCI/ADR-RES ovarian): 17.5 µM
GI50 (SR leukemia): 1620 nM
TGI (SR leukemia): 4.33 µM
GI50 (SF-539 CNS): 5.48 µM
TGI (SF-539 CNS): 19.1 µM
GI50 (NCI-H23 lung): 4.11 µM
TGI (NCI-H23 lung): 16.5 µM
GI50 (BT-549 breast): 6.16 µM
TGI (BT-549 breast): 19.4 µM
GI50 (UACC-62 melanoma): 3.82 µM
TGI (UACC-62 melanoma): 15 µM
GI50 (EKVX NSCLC): 6.14 µM
TGI (EKVX NSCLC): 20.3 µM
GI50 (MOLT-4 leukemia): 2820 nM
TGI (MOLT-4 leukemia): 8.27 µM
GI50 (COLO 205 colon): 1850 nM
TGI (COLO 205 colon): 3.72 µM
GI50 (PC-3 prostate): 4.19 µM
TGI (PC-3 prostate): 18.3 µM
GI50 (UO-31 renal): 1650 nM
TGI (UO-31 renal): 5.55 µM
GI50 (SNB-19 CNS): 10.2 µM
TGI (SNB-19 CNS): 22.2 µM
GI50 (OVCAR-8 ovarian): 13.1 µM
TGI (OVCAR-8 ovarian): 29.1 µM
GI50 (786-0 renal): 2220 nM
TGI (786-0 renal): 5.37 µM
GI50 (UACC-257 melanoma): 2470 nM
TGI (UACC-257 melanoma): 7 µM
GI50 (A549 NSCLC): 7.76 µM
TGI (A549 NSCLC): 22 µM
GI50 (NCI-H226 lung): 13.6 µM
TGI (NCI-H226 lung): 32.5 µM
GI50 (A498 renal): 3.13 µM
TGI (A498 renal): 16.4 µM
GI50 (RPMI-8226 leukemia): 2560 nM
TGI (RPMI-8226 leukemia): 11.8 µM
GI50 (HL-60(TB) leukemia): 1700 nM
TGI (HL-60(TB) leukemia): 3.98 µM
GI50 (HCT-116 colon): 2780 nM
TGI (HCT-116 colon): 10.5 µM
GI50 (HCT-15 colon): 2640 nM
TGI (HCT-15 colon): 8.18 µM
GI50 (OVCAR-5 ovarian): 12 µM
TGI (OVCAR-5 ovarian): 24.9 µM
GI50 (SNB-75 CNS): 3.69 µM
TGI (SNB-75 CNS): 16.7 µM
GI50 (MCF7 breast): 4.33 µM
TGI (MCF7 breast): 14.1 µM
GI50 (SN12C renal): 10.8 µM
TGI (SN12C renal): 23.9 µM
GI50 (T-47D breast): 3.57 µM
TGI (T-47D breast): 15.9 µM
GI50 (SK-MEL-28 melanoma): 1960 nM
TGI (SK-MEL-28 melanoma): 4.38 µM
GI50 (MDA-MB-231 breast): 4.91 µM
TGI (MDA-MB-231 breast): 17.5 µM
GI50 (HOP-62 NSCLC): 4.47 µM
TGI (HOP-62 NSCLC): 16.8 µM
GI50 (HCC-2998 colon): 4.22 µM
TGI (HCC-2998 colon): 15 µM
GI50 (SF-295 CNS): 1690 nM
TGI (SF-295 CNS): 3.62 µM
GI50 (MDA-MB-435): 3.3 µM
TGI (MDA-MB-435): 10.6 µM
GI50 (HT29 colon): 3000 nM
TGI (HT29 colon): 11.4 µM
GI50 (M14 melanoma): 1940 nM
TGI (M14 melanoma): 3.66 µM
GI50 (HS 578T breast): 3.19 µM
TGI (HS 578T breast): 15.5 µM
GI50 (SW-620 colon): 2140 nM
TGI (SW-620 colon): 5.76 µM
GI50 (SF-268 CNS): 8.4 µM
TGI (SF-268 CNS): 21.7 µM
GI50 (SK-MEL-5 melanoma): 1770 nM
TGI (SK-MEL-5 melanoma): 3.55 µM
GI50 (NCI-H460 lung): 2500 nM
TGI (NCI-H460 lung): 6.06 µM
GI50 (K-562 leukemia): 2550 nM
TGI (K-562 leukemia): 10.5 µM
GI50 (DU-145 prostate): 10.5 µM
TGI (DU-145 prostate): 22.6 µM
GI50 (MALME-3M melanoma): 1280 nM
TGI (MALME-3M melanoma): 3.08 µM
GI50 (ACHN renal): 6.82 µM
TGI (ACHN renal): 20.1 µM
GI50 (SK-OV-3 ovarian): 11 µM
TGI (SK-OV-3 ovarian): 23 µM
GI50 (LOX IMVI melanoma): 1930 nM
TGI (LOX IMVI melanoma): 4.27 µM
GI50 (CCRF-CEM leukemia): 3.34 µM
TGI (CCRF-CEM leukemia): 15.4 µM
GI50 (OVCAR-3 ovarian): 4.32 µM
TGI (OVCAR-3 ovarian): 16.5 µM
